From ChEMBL document CHEMBL1201862, “PubChem BioAssay data set” (2004)
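In this assay, cells in 96-well plates receive the compound at five concentrations for 48 hours. Endpoints are linearly interpolated between the surrounding concentrations. GI50 is the concentration that inhibits growth by half.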 Activity calls are given as the source filed them. Rule as the data show it: active = GI50 up to about 1.1 µM and inactive = higher.

Assays:
Assay in all cases: NCI-60 cell line screen, 48 h
TK-10 = tested on: TK-10
HCT-15 = tested on: HCT-15
HCC 2998 = tested on: HCC 2998
HCT-116 = tested on: HCT-116
K562 = tested on: K562
HOP-62 = tested on: HOP-62
SK-MEL-28 = tested on: SK-MEL-28
Malme-3M = tested on: Malme-3M
NCI-H23 = tested on: NCI-H23
ACHN = tested on: ACHN
HT-29 = tested on: HT-29
OVCAR-4 = tested on: OVCAR-4
EKVX = tested on: EKVX
HL-60 = tested on: HL-60
OVCAR-3 = tested on: OVCAR-3
A549 = tested on: A549
OVCAR-8 = tested on: OVCAR-8
NCI-H226 = tested on: NCI-H226
U-251 = tested on: U-251
A498 = tested on: A498
SK-OV-3 = tested on: SK-OV-3
SNB-75 = tested on: SNB-75
SF-539 = tested on: SF-539
PC-3 = tested on: PC-3
SF-268 = tested on: SF-268
SF-295 = tested on: SF-295
NCI/ADR-RES = tested on: NCI/ADR-RES
KM12 = tested on: KM12
COLO 205 = tested on: COLO 205
DU-145 = tested on: DU-145
RPMI-8226 = tested on: RPMI-8226
M14 = tested on: M14
MDA-MB-435 = tested on: MDA-MB-435
OVCAR-5 = tested on: OVCAR-5
UO-31 = tested on: UO-31
BT-549 = tested on: BT-549
MCF7 = tested on: MCF7
SW-620 = tested on: SW-620
UACC-62 = tested on: UACC-62
RXF 393 = tested on: RXF 393
SK-MEL-2 = tested on: SK-MEL-2
HOP-92 = tested on: HOP-92
NCI-H460 = tested on: NCI-H460
CAKI-1 = tested on: CAKI-1
MDA-MB-231 = tested on: MDA-MB-231
SNB-19 = tested on: SNB-19
786-0 = tested on: 786-0
NCI-H522 = tested on: NCI-H522
SR = tested on: SR
MOLT-4 = tested on: MOLT-4
IGROV-1 = tested on: IGROV-1
CCRF-CEM = tested on: CCRF-CEM
LOX IMVI = tested on: LOX IMVI
MDA-N = tested on: MDA-N
UACC-257 = tested on: UACC-257
Hs-578T = tested on: Hs-578T
SK-MEL-5 = tested on: SK-MEL-5
T47D = tested on: T47D
SN12C = tested on: SN12C

SMILES: NS(=O)(=O)c1nnc(NS(=O)(=O)C(F)(F)F)s1
- GI50 (TK-10): > 100 µM (inactive)
- GI50 (HCT-15): > 100 µM
- GI50 (HCC 2998): > 100 µM (inactive)
- GI50 (HCT-116): > 100 µM (inactive)
- GI50 (K562): > 100 µM (inactive)
- GI50 (HOP-62): > 100 µM (inactive)
- GI50 (SK-MEL-28): > 100 µM (inactive)
- GI50 (Malme-3M): > 100 µM (inactive)
- GI50 (NCI-H23): 77.3 µM (inactive)
- GI50 (ACHN): > 100 µM (inactive)
- GI50 (HT-29): > 100 µM (inactive)
- GI50 (OVCAR-4): > 100 µM (inactive)
- GI50 (EKVX): > 100 µM (inactive)
- GI50 (HL-60): > 100 µM (inactive)
- GI50 (OVCAR-3): > 100 µM (inactive)
- GI50 (A549): > 100 µM (inactive)
- GI50 (OVCAR-8): > 100 µM (inactive)
- GI50 (NCI-H226): > 100 µM (inactive)
- GI50 (U-251): > 100 µM (inactive)
- GI50 (A498): > 100 µM (inactive)
- GI50 (SK-OV-3): > 100 µM (inactive)
- GI50 (SNB-75): > 100 µM (inactive)
- GI50 (SF-539): > 100 µM (inactive)
- GI50 (PC-3): > 100 µM (inactive)
- GI50 (SF-268): > 100 µM (inactive)
- GI50 (SF-295): > 100 µM (inactive)
- GI50 (NCI/ADR-RES): > 100 µM (inactive)
- GI50 (KM12): > 100 µM (inactive)
- GI50 (COLO 205): > 100 µM (inactive)
- GI50 (DU-145): > 100 µM (inactive)
- GI50 (RPMI-8226): > 100 µM (inactive)
- GI50 (M14): > 100 µM (inactive)
- GI50 (MDA-MB-435): > 100 µM (inactive)
- GI50 (OVCAR-5): > 100 µM (inactive)
- GI50 (UO-31): > 100 µM (inactive)
- GI50 (BT-549): > 100 µM (inactive)
- GI50 (MCF7): > 100 µM (inactive)
- GI50 (SW-620): > 100 µM (inactive)
- GI50 (UACC-62): > 100 µM (inactive)
- GI50 (RXF 393): > 100 µM (inactive)
- GI50 (SK-MEL-2): > 100 µM (inactive)
- GI50 (HOP-92): > 100 µM (inactive)
- GI50 (NCI-H460): > 100 µM (inactive)
- GI50 (CAKI-1): > 100 µM (inactive)
- GI50 (MDA-MB-231): > 100 µM (inactive)
- GI50 (SNB-19): > 100 µM (inactive)
- GI50 (786-0): > 100 µM (inactive)
- GI50 (NCI-H522): > 100 µM (inactive)
- GI50 (SR): 46.7 µM (inactive)
- GI50 (MOLT-4): > 100 µM (inactive)

SMILES: CC1(C)N=c2c(ncn2N)=C(C(N)=O)N1
- GI50 (TK-10): > 100 µM (inactive)
- GI50 (HCT-15): > 100 µM
- GI50 (HCC 2998): > 100 µM (inactive)
- GI50 (HCT-116): > 100 µM (inactive)
- GI50 (K562): > 100 µM (inactive)
- GI50 (HOP-62): > 100 µM (inactive)
- GI50 (SK-MEL-28): > 100 µM (inactive)
- GI50 (Malme-3M): > 100 µM (inactive)
- GI50 (NCI-H23): > 100 µM (inactive)
- GI50 (IGROV-1): > 100 µM (inactive)
- GI50 (ACHN): > 100 µM (inactive)
- GI50 (HT-29): > 100 µM (inactive)
- GI50 (OVCAR-4): > 100 µM (inactive)
- GI50 (EKVX): > 100 µM (inactive)
- GI50 (HL-60): > 100 µM (inactive)
- GI50 (OVCAR-3): > 100 µM (inactive)
- GI50 (A549): > 100 µM (inactive)
- GI50 (OVCAR-8): > 100 µM (inactive)
- GI50 (CCRF-CEM): > 100 µM (inactive)
- GI50 (NCI-H226): > 100 µM (inactive)
- GI50 (LOX IMVI): > 100 µM (inactive)
- GI50 (U-251): > 100 µM (inactive)
- GI50 (A498): > 100 µM (inactive)
- GI50 (SK-OV-3): > 100 µM (inactive)
- GI50 (SNB-75): > 100 µM (inactive)
- GI50 (SF-539): > 100 µM (inactive)
- GI50 (PC-3): > 100 µM (inactive)
- GI50 (SF-268): > 100 µM (inactive)
- GI50 (SF-295): > 100 µM (inactive)
- GI50 (MDA-N): > 100 µM (inactive)
- GI50 (NCI/ADR-RES): > 100 µM (inactive)
- GI50 (KM12): > 100 µM (inactive)
- GI50 (COLO 205): > 100 µM (inactive)
- GI50 (DU-145): > 100 µM (inactive)
- GI50 (RPMI-8226): > 100 µM (inactive)
- GI50 (M14): > 100 µM (inactive)
- GI50 (MDA-MB-435): > 100 µM (inactive)
- GI50 (OVCAR-5): > 100 µM (inactive)
- GI50 (MCF7): > 100 µM (inactive)
- GI50 (SW-620): > 100 µM (inactive)
- GI50 (UACC-62): > 100 µM (inactive)
- GI50 (RXF 393): > 100 µM (inactive)
- GI50 (UACC-257): > 100 µM (inactive)
- GI50 (HOP-92): 22.3 µM (inactive)
- GI50 (NCI-H460): > 100 µM (inactive)
- GI50 (CAKI-1): > 100 µM (inactive)
- GI50 (MDA-MB-231): > 100 µM (inactive)
- GI50 (SNB-19): > 100 µM (inactive)
- GI50 (786-0): > 100 µM (inactive)
- GI50 (NCI-H522): > 100 µM (inactive)
- GI50 (SR): > 100 µM (inactive)
- GI50 (Hs-578T): > 100 µM (inactive)
- GI50 (SK-MEL-5): > 100 µM (inactive)
- GI50 (T47D): > 100 µM (inactive)
- GI50 (SN12C): > 100 µM (inactive)

SMILES: COC(=O)c1ccccc1/C=C1\Cc2ccc3c(c2C1=O)CCC3
- GI50 (TK-10): > 100 µM (inactive)
- GI50 (HCT-15): > 100 µM
- GI50 (HCC 2998): > 100 µM (inactive)
- GI50 (HCT-116): > 100 µM (inactive)
- GI50 (K562): > 100 µM (inactive)
- GI50 (HOP-62): > 100 µM (inactive)
- GI50 (SK-MEL-28): > 100 µM (inactive)
- GI50 (Malme-3M): > 100 µM (inactive)
- GI50 (NCI-H23): > 100 µM (inactive)
- GI50 (IGROV-1): > 100 µM (inactive)
- GI50 (ACHN): > 100 µM (inactive)
- GI50 (HT-29): > 100 µM (inactive)
- GI50 (OVCAR-4): > 100 µM (inactive)
- GI50 (EKVX): > 100 µM (inactive)
- GI50 (HL-60): > 100 µM (inactive)
- GI50 (OVCAR-3): > 100 µM (inactive)
- GI50 (A549): > 100 µM (inactive)
- GI50 (OVCAR-8): > 100 µM (inactive)
- GI50 (CCRF-CEM): > 100 µM (inactive)
- GI50 (NCI-H226): > 100 µM (inactive)
- GI50 (LOX IMVI): > 100 µM (inactive)
- GI50 (U-251): > 100 µM (inactive)
- GI50 (A498): > 100 µM (inactive)
- GI50 (SK-OV-3): > 100 µM (inactive)
- GI50 (SNB-75): > 100 µM (inactive)
- GI50 (SF-539): > 100 µM (inactive)
- GI50 (PC-3): > 100 µM (inactive)
- GI50 (SF-268): > 100 µM (inactive)
- GI50 (SF-295): > 100 µM (inactive)
- GI50 (MDA-N): > 100 µM (inactive)
- GI50 (NCI/ADR-RES): > 100 µM (inactive)
- GI50 (KM12): > 100 µM (inactive)
- GI50 (COLO 205): > 100 µM (inactive)
- GI50 (DU-145): > 100 µM (inactive)
- GI50 (RPMI-8226): > 100 µM (inactive)
- GI50 (MDA-MB-435): > 100 µM (inactive)
- GI50 (OVCAR-5): > 100 µM (inactive)
- GI50 (UO-31): > 100 µM (inactive)
- GI50 (MCF7): > 100 µM (inactive)
- GI50 (SW-620): > 100 µM (inactive)
- GI50 (UACC-62): > 100 µM (inactive)
- GI50 (RXF 393): > 100 µM (inactive)
- GI50 (UACC-257): > 100 µM (inactive)
- GI50 (HOP-92): > 100 µM (inactive)
- GI50 (NCI-H460): > 100 µM (inactive)
- GI50 (CAKI-1): > 100 µM (inactive)
- GI50 (MDA-MB-231): > 100 µM (inactive)
- GI50 (786-0): > 100 µM (inactive)
- GI50 (NCI-H522): > 100 µM (inactive)
- GI50 (SR): > 100 µM (inactive)
- GI50 (Hs-578T): > 100 µM (inactive)
- GI50 (SK-MEL-5): > 100 µM (inactive)
- GI50 (T47D): > 100 µM (inactive)
- GI50 (SN12C): > 100 µM (inactive)
- GI50 (MOLT-4): > 100 µM (inactive)
